Results on 8 molecules are retold here after patent US8552023B2, “Non-amidic linkers with branched termini as CGRP receptor antagonists” (Merck Sharp & Dohme Corp., priority 2008, dated 2013).

In the assay the target is recombinant human CL receptor/RAMP1 (Homo sapiens (Human), UniProt O60894+Q16602). The assay can be described thus: Human CGRP receptor binding (recombinant receptor binding assay, 125I-hCGRP). As for the experimental part: RECOMBINANT RECEPTOR: Human CL receptor (Genbank accession number L76380) was subcloned into the expression vector pIREShyg2 (BD Biosciences Clontech) as a 5′NheI and 3′ PmeI fragment. Human RAMP1 (Genbank accession number AJ001014) was subcloned into the expression vector pIRESpuro2 (BD Biosciences Clontech) as a 5′NheI and 3′NotI fragment. HEK 293 cells (human embryonic kidney cells; ATCC #CRL-1573) were cultured in DMEM with 4.5 g/L glucose, 1 mM sodium pyruvate and 2 mM glutamine supplemented with 10% fetal bovine serum (FBS), 100 units/mL penicillin and 100 μg/mL streptomycin, and maintained at 37° C. and 95% humidity. Cells were subcultured by treatment with 0.25% trypsin with 0.1% EDTA in HBSS. Stable cell line generation was accomplished by co-transfecting 10 μg of DNA with 30 μg Lipofectamine 2000 (Invitrogen) in 75 cm^2 flasks. CL receptor and RAMP1 expression constructs were co-transfected in equal amounts. Twenty-four hours after transfection the cells were diluted and selective medium (growth medium+300 μg/mL hygromycin and 1 μg/mL puromycin) was added the following day. A clonal cell line was generated by single cell deposition utilizing a FACS Vantage SE (Becton Dickinson). Growth medium was adjusted to 150 μg/mL hygromycin and 0.5 μg/mL puromycin for cell propagation.
The cell suspension was disrupted with a laboratory homogenizer and centrifuged at 48,000 g to isolate membranes. The pellets were resuspended in harvest buffer plus 250 mM sucrose and stored at −70° C. For binding assays, 20 μg of membranes were incubated in 1 ml binding buffer (10 mM HEPES, pH 7.4, 5 mM MgCl2, and 0.2% BSA) for 3 hours at room temperature containing 10 pM ^125I-hCGRP (GE Healthcare) and antagonist. The assay was terminated by filtration through 96-well GFB glass fiber filter plates (PerkinElmer) that had been blocked with 0.05% polyethyleneimine. The filters were washed 3 times with ice-cold assay buffer (10 mM HEPES, pH 7.4 and 5 mM MgCl2). Scintillation fluid was added and the plates were counted on a Topcount (Packard). Non-specific binding was determined and the data analysis was carried out with the apparent dissociation constant (Ki) determined by using a non-linear least squares fitting the bound CPM data to the equation below: […]

Where [1] appears, read: read-out: Human CGRP receptor binding Ki.

Each structure is given as a SMILES string. Where two headings read alike, the source gives them in different places.

Sequence of recombinant human CL receptor/RAMP1 (Q16602 23-461): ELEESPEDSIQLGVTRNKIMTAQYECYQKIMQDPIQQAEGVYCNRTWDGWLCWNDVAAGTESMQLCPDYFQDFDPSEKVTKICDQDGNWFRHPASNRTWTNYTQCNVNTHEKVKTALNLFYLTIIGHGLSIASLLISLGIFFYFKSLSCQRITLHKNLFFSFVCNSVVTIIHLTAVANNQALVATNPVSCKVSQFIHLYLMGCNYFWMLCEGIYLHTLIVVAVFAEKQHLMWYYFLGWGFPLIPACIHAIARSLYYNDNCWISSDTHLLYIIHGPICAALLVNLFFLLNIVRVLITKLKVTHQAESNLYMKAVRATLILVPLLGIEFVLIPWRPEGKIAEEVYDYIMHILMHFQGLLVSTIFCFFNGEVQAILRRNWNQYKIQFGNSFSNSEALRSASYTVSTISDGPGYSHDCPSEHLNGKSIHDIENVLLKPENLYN
Sequence of recombinant human CL receptor/RAMP1 (O60894 27-148): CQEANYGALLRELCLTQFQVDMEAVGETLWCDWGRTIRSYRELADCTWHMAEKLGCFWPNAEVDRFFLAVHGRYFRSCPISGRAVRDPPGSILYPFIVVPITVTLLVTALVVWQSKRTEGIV

The Ki is a dissociation constant, usually derived from enzyme kinetics or from competition with a known ligand. Take `CC(C)(C)C(=O)N(CC#Cc1ccc2c(c1)CC1(C2)C(=O)Nc2ncccc21)Cc1ccccc1` (centres unmarked) [Example 1, N-Benzyl-2,2-dimethyl-N-[3-(2′-oxo-1,1′,2′,3-tetrahydrospiro[indene-2,3′-pyrrolo[2,3-b]pyridin]-5-yl)prop-2-yn-1-yl]propanamide]: the Ki under setting [1] stood at 20000 pM.

With `CC(C)(C)C(=O)N(CCCc1ccc2c(c1)CC1(C2)C(=O)Nc2ncccc21)Cc1ccccc1` (centres unmarked) [Example 2, N-benzyl-2,2-dimethyl-N-[3-(2′-oxo-1,1′,2′,3-tetrahydrospiro[indene-2,3′-pyrrolo[2,3-b]pyridin]-5-yl)propyl]propanamide], the Ki under setting [1] was determined as 45000 pM.

`CC(C)(CF)C(=O)N(C/C=C/c1cnc2c(c1)C[C@@]1(C2)C(=O)Nc2ncccc21)[C@@H]1CCc2ccccc21` [Example 3, N-[(1R)-2,3-dihydro-1H-inden-1-yl]-3-fluoro-2,2-dimethyl-N-{(2E)-3-[(6S)-2′-oxo-1′,2′,5,7-tetrahydrospiro[cyclopenta[b]pyridine-6,3′-pyrrolo[2,3-b]pyridin]-3-yl]prop-2-en-1-yl}propanamide]: under setting [1], the Ki came to 60 pM.

As to `C[C@H](c1cc(F)cc(F)c1)N(C/C=C/c1cnc2c(c1)C[C@@]1(C2)C(=O)Nc2ncccc21)C(=O)C(C)(C)CCl` [Example 6], the inhibition constant Ki (read-out: Ki) is 65 pM.

Regarding `C[C@H](c1cc(F)cc(F)c1)N(C/C=C/c1cnc2c(c1)C[C@@]1(C2)C(=O)Nc2ncccc21)C(=O)C(C)(C)CF` [Example 7], under “read-out: Ki”, the inhibition constant (Ki) was 41 pM.

Regarding `C[C@H](c1cc(F)cc(F)c1)N(C/C=C/c1ccc2c(c1)C[C@@]1(C2)C(=O)NC(=O)N1C)C(=O)C(C)(C)C` [Example 8], the Ki (read-out: Ki) came to 430 pM.

For the molecule `C[C@H](c1cc(F)cc(F)c1)N(C/C=C/c1cnc2c(c1)C[C@@]1(C2)C(=O)Nc2ncccc21)C(=O)C1(C(F)(F)F)CC1` [Example 11], for the setting “read-out: Ki”, the Ki came out at 50 pM.

Regarding `Cc1ccc([C@@H](C)N(C/C=C/c2cnc3c(c2)C[C@@]2(C3)C(=O)Nc3ncccc32)C(=O)C(C)(C)C)cc1F` [Example 13], the inhibitory constant (Ki) (read-out: Ki) is 130 pM.
